This note sets out measurements from patent US4119722A, “Method for control of fungi using 4-halo-5-aryl-1,2,3,-dithiazoles” (Chevron Research Company, priority 1977, dated 1978).

In one data set the test system is Aspergillus niger. The experiment in a line: Mycelia Inhibition. It is filed as cell-based. Particulars: 25° C., 24 hours. The procedure:
(§1) The compounds of the present invention were evaluated for fungicidal effectiveness by means of a mycelial inhibition test. This test is designed to measure the fungitoxic acitvity of fungicidal chemicals in terms of their degree of inhibition of mycelium growth. Each compound to be tested was dissolved in acetone to 500 ppm concentration. Paper strips were innoculated with the particular mycelium growth by covering the paper with a potato dextrose broth culture of mycelial suspension. The innoculated papers were then placed on potato dextrose agar plates and sprayed by means of a micro sprayer with the fungicidal solution. The treated paper strips were incubated at 25° C. and data is taken after 24 hours. Fungicidal activities are measured by a zone of inhibited mycelial growth from the center of the paper strip. The effectiveness of the compounds tested for fungicidal activity is reported in Table VI in terms of the microgram/cm^2 for 99% control of the fungus.

For another data set, the system named is Botrytis cinerea. Put plainly: Mycelia Inhibition. Type of data set: cell-based. Particulars: 25° C., 24 hours. The procedure: as §1
The subject of a further data set is Fusarium moniloforma. Put plainly: Mycelia Inhibition. Particulars: 25° C., 24 hours. Type of data set: cell-based. The procedure:
as §1

The subject of the next data set is Rhizoctonia solani. The experiment in a line: Mycelia Inhibition. It is filed as cell-based. Particulars: 25° C., 24 hours. The procedure:
as §1

The test system of data set [1] is Crabgrass (Digitaria sanguinalis). The experiment in a line: Post-emergent herbicidal test. Type of data set: in vivo. Particulars: post-emergence, 504 h, 33 mcg/cm^2, 3 weeks, scale 0 (no phytotoxicity) to 100 (complete kill), read-out: Herbicidal Effectiveness (C). The procedure:
(§2) Post-emergent herbicidal tests with representative compounds of this invention were made using the following method.
(§3) An acetone solution of the test compound was prepared by mixing 750 mg of the compound, 220 mg of a nonionic surfactant and 25 ml of acetone. This solution was added to approximately 125 ml of water containing 156 mg of surfactant.
(§4) This test solution was uniformly sprayed on 2 similar pots of 24-day-old plants (approximately 15 to 25 plants per pot) at a dose of 33 mcg/cm^2. After the plants had dried, they were placed in a greenhouse and then watered intermittently at their bases, as needed. The plants were observed periodically for phytotoxic effects and physiological and morphological responses to the treatment. After 3 weeks, the herbicidal effectiveness of the compound was rated based on these observations. A 0-to-100 scale was used, 0 representing no phytotoxicity and 100 representing complete kill.

Data set [2] deals with Lambsquarter (Chenopodium album). Put plainly: Post-emergent herbicidal test. It is filed as in vivo. Particulars: post-emergence, 504 h, 33 mcg/cm^2, 3 weeks, scale 0 (no phytotoxicity) to 100 (complete kill), read-out: Herbicidal Effectiveness (P). How it is done: as §2, §3, §4
The test system of data set [3] is Mustard (Brassica arvensis). The experiment in a line: Post-emergent herbicidal test. Type of data set: in vivo. Particulars: post-emergence, 504 h, 33 mcg/cm^2, 3 weeks, scale 0 (no phytotoxicity) to 100 (complete kill), read-out: Herbicidal Effectiveness (L). How it is done: as §2, §3, §4
For data set [4], the system named is Pigweed (Amaranthus retroflexus). The experiment in a line: Post-emergent herbicidal test. It is filed as in vivo. Particulars: post-emergence, 504 h, 33 mcg/cm^2, 3 weeks, scale 0 (no phytotoxicity) to 100 (complete kill), read-out: Herbicidal Effectiveness. How it is done: as §2, §3, §4
Data set [5] concerns Watergrass (Echinochloa Crusgalli). Put plainly: Post-emergent herbicidal test. It is filed as in vivo. Particulars: Echinochloa crus-galli, post-emergence, 504 h, 33 mcg/cm^2, 3 weeks, scale 0 (no phytotoxicity) to 100 (complete kill), read-out: Herbicidal Effectiveness (W). The procedure: as §2, §3, §4
The test system of the next data set is Wild Oats (Avena fatua). Put plainly: Post-emergent herbicidal test. Type of data set: in vivo. Particulars: post-emergence, 504 h, 33 mcg/cm^2, 3 weeks, scale 0 (no phytotoxicity) to 100 (complete kill), read-out: Herbicidal Effectiveness (O). The procedure:
as §2, §3, §4

The subject of data set [6] is two spotted-mites (Tetramuchus urticae). The experiment in a line: Mite control test, adult mites. Particulars: 40-ppm leaf dip, adult mortality one day after treatment; 1440 min. It is filed as in vivo. The procedure: (§5) Compounds of the invention were tested for the control mites and mite eggs by the following procedure. Pinto bean leaves were invested with two spotted-mites (Tetramuchus urticae). The mites were then allowed to lay eggs on the leaves. After 48 hours, the leaves were dipped into a water/acetone solution containing a small amount of a non-ionic surfactant and 40-ppm of the test compound. The treated leaves were then maintained at 85° F. One day after treatment, the mortality of adult mites was determined, and 7 days after treatment, the egg mortality (non-hatching eggs) was determined.

Data set [7] deals with mite eggs (Tetramuchus urticae). Put plainly: Mite control test, mite eggs. It is filed as in vivo. Particulars: 40-ppm leaf dip, egg mortality (non-hatching eggs) 7 days after treatment. How it is done: as §5
A further data set has as its system Phytophthora infestans. The experiment in a line: whole plant or invertebrate. It is filed as in vivo. Particulars: in Solanum lycopersicum, 168 h, read-out: Tomato Late Blight, % Control.

Consider `Clc1nssc1=Nc1ccccc1` [Compound 1, 4-chloro-5-phenylimino-1,2,3-dithiazole], for which the “Mycelia Inhibition, for 99% control (A)” value with Aspergillus niger was > 1.7 micrograms/cm^2. In the data set on Botrytis cinerea, the “Mycelia Inhibition, for 99% control (B)” value came out at 0.33 micrograms/cm^2. Moreover, the “Mycelia Inhibition, for 99% control (F)” value with Fusarium moniloforma was > 1.7 micrograms/cm^2. The “Mycelia Inhibition, for 99% control (R)” value in the data set with Rhizoctonia solani is > 1.7 micrograms/cm^2. In addition, the pest or weed control at 33 µg/cm2 in data set [1] is 20%; in [2], 70%; in [3] it was 80%; in data set [4], 85%; in data set [5] it was 10%; in the data set with Wild Oats (Avena fatua) it was 0%.

In the case of `Clc1ccc(N=c2ssnc2Cl)cc1` [Compound 2], the “Mycelia Inhibition, for 99% control (A)” value in the data set on Aspergillus niger is 0.85 micrograms/cm^2. Also, in the data set on Fusarium moniloforma, the “Mycelia Inhibition, for 99% control (F)” value worked out at 1.5 micrograms/cm^2. Moreover, in the data set with Rhizoctonia solani, the “Mycelia Inhibition, for 99% control (R)” value turned out to be 0.33 micrograms/cm^2. In addition, the pest or weed control at 33 µg/cm2 in data set [1] stood at 20%; in data set [2] it was 95%; in data set [3] it was 95%; in [4], 100%; in [5] it was 85%; in the data set on Wild Oats (Avena fatua), 15%.

Turning to `Clc1ccc(N=c2ssnc2Cl)cc1Cl` [Compound 5, 4-chloro-5-(3,4-dichlorophenylimino)-1,2,3-dithiazole], the “Mycelia Inhibition, for 99% control (A)” value in the data set with Aspergillus niger is 1.1 micrograms/cm^2. Further, the “Mycelia Inhibition, for 99% control (F)” value in the data set on Fusarium moniloforma is given as > 1.7 micrograms/cm^2. In the data set on Rhizoctonia solani, the “Mycelia Inhibition, for 99% control (R)” value is reported as > 1.7 micrograms/cm^2. Besides, the pest or weed control at 33 µg/cm2 worked out at 30% in [1]; 100% in data set [2]; 100% in data set [3]; 100% in [4]; 55% in [5]; 35% in the data set with Wild Oats (Avena fatua). In addition, the “Mite Control, %” value in [6] amounted to 99%. For the same compound, the “Mite Eggs Control, %” value in data set [7] was found to be 100%.

For the compound `Cc1ccccc1N=c1ssnc1Cl` [Compound 7], the “Mycelia Inhibition, for 99% control (A)” value in the data set with Aspergillus niger worked out at 0.98 micrograms/cm^2. Also, in the data set with Botrytis cinerea, the “Mycelia Inhibition, for 99% control (B)” value is > 1.7 micrograms/cm^2. The “Mycelia Inhibition, for 99% control (F)” value in the data set with Fusarium moniloforma is on record as > 1.7 micrograms/cm^2. Moreover, the “Mycelia Inhibition, for 99% control (R)” value in the data set on Rhizoctonia solani is > 1.7 micrograms/cm^2. Moreover, the pest or weed control at 33 µg/cm2 in data set [1] is 0%; in data set [2], 70%; in [3], 60%; in data set [4], 70%; in data set [5], 0%; with Wild Oats (Avena fatua), 0%.

With `O=[N+]([O-])c1cccc(N=c2ssnc2Cl)c1` [Compound 8], the pest or weed control at 250 µg/mL with Phytophthora infestans was determined as 44%. Also, the “Mycelia Inhibition, for 99% control (A)” value in the data set with Aspergillus niger was > 1.7 micrograms/cm^2. For the same compound, the “Mycelia Inhibition, for 99% control (B)” value in the data set with Botrytis cinerea was found to be 1.3 micrograms/cm^2. Moreover, the “Mycelia Inhibition, for 99% control (F)” value with Fusarium moniloforma is given as > 1.7 micrograms/cm^2. Further, the “Mycelia Inhibition, for 99% control (R)” value with Rhizoctonia solani is listed as > 1.7 micrograms/cm^2. Moreover, the pest or weed control at 33 µg/cm2 in [1] is 0%; in [2], 40%; in [3], 35%; in data set [4] it was 30%; in data set [5] it was 0%; in the data set with Wild Oats (Avena fatua), 0%.

For `Cc1cccc(C)c1N=c1ssnc1Cl` [Compound 10], the pest or weed control at 33 µg/cm2 in data set [1] was 0%; in [2], 30%; in data set [3] it was 75%; in data set [4], 60%; in data set [5], 0%; in the data set with Wild Oats (Avena fatua) it was 0%.

Take `Cc1cc(C)c(N=c2ssnc2Cl)c(C)c1` [Compound 11]: in the data set on Aspergillus niger, the “Mycelia Inhibition, for 99% control (A)” value is > 1.7 micrograms/cm^2. Also, the “Mycelia Inhibition, for 99% control (B)” value in the data set on Botrytis cinerea was > 1.7 micrograms/cm^2. In addition, the “Mycelia Inhibition, for 99% control (F)” value with Fusarium moniloforma is > 1.7 micrograms/cm^2. Moreover, in the data set with Rhizoctonia solani, the “Mycelia Inhibition, for 99% control (R)” value is given as 0.98 micrograms/cm^2.

In the case of `Clc1nssc1=Nc1cccc(Br)c1` [Compound 12], the “Mycelia Inhibition, for 99% control (A)” value in the data set with Aspergillus niger was > 1.7 micrograms/cm^2. Further, the “Mycelia Inhibition, for 99% control (B)” value with Botrytis cinerea is recorded as > 1.7 micrograms/cm^2. Moreover, the “Mycelia Inhibition, for 99% control (F)” value with Fusarium moniloforma is > 1.7 micrograms/cm^2. For the same compound, the “Mycelia Inhibition, for 99% control (R)” value with Rhizoctonia solani came to 1.4 micrograms/cm^2. Further, the pest or weed control at 33 µg/cm2 in data set [1] was 30%; in [2], 55%; in data set [3], 100%; in data set [4] it was 85%; in data set [5] it was 30%; in the data set on Wild Oats (Avena fatua), 30%. Besides, the “Mite Eggs Control, %” value in data set [7] is 78%.

`Clc1ccccc1N=c1ssnc1Cl` [Compound 14]: the pest or weed control at 33 µg/cm2 was 30% in data set [1]; 100% in [2]; 100% in [3]; 93% in data set [4]; 40% in data set [5]; 0% with Wild Oats (Avena fatua). Also, the “Mite Control, %” value in [6] was 70%. Also, in [7], the “Mite Eggs Control, %” value was 0%.

For the compound `Clc1nssc1=Nc1ccc2ccccc2c1` [Compound 16], the pest or weed control at 250 µg/mL in the data set on Phytophthora infestans was determined as 73%. For the same compound, the pest or weed control at 33 µg/cm2 in [1] turned out to be 20%; in [2], 70%; in data set [3], 100%; in data set [4], 85%; in [5], 90%; in the data set on Wild Oats (Avena fatua) it was 0%.

For the compound `Fc1ccc(N=c2ssnc2Cl)cc1` [Compound 24], the pest or weed control at 33 µg/cm2 in [1] was 60%; in data set [2], 70%; in data set [3], 100%; in [4] it was 70%; in [5] it was 60%; in the data set on Wild Oats (Avena fatua), 40%.

In the case of `Cc1ccc(N=c2ssnc2Cl)cc1` [Compound 25], in the data set on Aspergillus niger, the “Mycelia Inhibition, for 99% control (A)” value amounted to 1.5 micrograms/cm^2. In the data set on Botrytis cinerea, the “Mycelia Inhibition, for 99% control (B)” value worked out at 0.76 micrograms/cm^2. In the data set on Fusarium moniloforma, the “Mycelia Inhibition, for 99% control (F)” value is on record as > 1.7 micrograms/cm^2. In addition, the “Mycelia Inhibition, for 99% control (R)” value in the data set on Rhizoctonia solani was found to be 0.92 micrograms/cm^2. Moreover, the pest or weed control at 33 µg/cm2 amounted to 35% in data set [1]; 45% in [2]; 100% in [3]; 90% in [4]; 55% in data set [5]; 30% in the data set on Wild Oats (Avena fatua).

Take `Oc1c(Cl)cc(N=c2ssnc2Cl)cc1Cl` [Compound 26]: the “Mycelia Inhibition, for 99% control (A)” value in the data set on Aspergillus niger was > 1.7 micrograms/cm^2. The “Mycelia Inhibition, for 99% control (B)” value in the data set on Botrytis cinerea is > 1.7 micrograms/cm^2. In addition, the “Mycelia Inhibition, for 99% control (F)” value with Fusarium moniloforma is > 1.7 micrograms/cm^2. Further, in the data set with Rhizoctonia solani, the “Mycelia Inhibition, for 99% control (R)” value is 1.3 micrograms/cm^2.
